From US7105538B2, “2-pyrrolidin-2-yl-[1,3,4]-oxadiazole compounds and their use as anti-depressants” (Gruenenthal GmbH, priority 2002, dated 2006) come the findings set out here.

The first assay deals with phenylquinone-induced writhing in mice. Nature of the assay: Analgesic efficacy by phenylquinone-induced writhing in mice. In kind it is in vivo. The following applies: male NMRI mice; 10 mg/kg i.v., 10 min before phenylquinone i.p.; writhing counted 5-20 min after phenylquinone. The procedure:
Investigation of Analgesic Efficacy by Testing Writhing in Mice
The investigation into analgesic efficacy was performed by phenylquinone-induced writhing in mice (modified after: I. C. Hendershot and J. Forsaith (1959), J. Pharmacol. Exp. Ther. 125, 237–240). Male NMRI mice weighing from 25 to 30 g were used for this purpose. 10 minutes after intravenous administration of the compounds tested, groups of 10 animals per substance dose received 0.3 ml/mouse of a 0.02% aqueous solution of phenylquinone (phenylbenzoquinone, Sigma, Deisenhofen; solution prepared by adding 5% of ethanol and stored in a water bath at 45° C.) administered intraperitoneally. The animals were placed individually into observation cages. A pushbutton counter was used to record the number of pain-induced stretching movements (writhing reactions=straightening of the torso with stretching of the rear extremities) for 5–20 minutes after phenylquinone administration. The control was provided by animals which received only physiological common salt solution. All substances were tested at the standard dosage of 10 mg/kg. The percentage inhibition (% inhibition) of the writhing reactions by a substance was calculated according to the following formula: […]
On the technique in general: Writhing tests count abdominal constrictions after an irritant is injected.
Regarding `CCCCC(=O)N1CCCC1c1nnc(-c2cccc(Cl)c2)o1` (centres unmarked) [Example 248, 1-{2-[5-(3-chloro-phenyl)-[1,3,4]oxadiazol-2-yl]-pyrrolidin-1-yl}-pentan-1-one], the “% inhibition of writhing reaction by intravenous administration of 10 mg/kg” value was found to be 45%.
Still for that read-out and setting: then `O=C(CCC1CCCC1)N1CCCC1c1nnc(-c2cccc(Cl)c2)o1` (centres unmarked) [Example 247, 1-{2-[5-(3-chloro-phenyl)-[1,3,4]oxadiazol-2-yl]-pyrrolidin-1-yl}-3-cyclopentyl-propan-1-one], with 33%.

The next assay deals with 5HT uptake (serotonin re-uptake), synaptosomes from rat brain. Nature of the assay: Inhibition of serotonin re-uptake (5HT-uptake inhibition) in rat brain synaptosomes. In kind it is biochemical. The following applies: synaptosomes (P2 fraction) from medulla+pons region of male rats' brains; test concentration not given. As to the method: Tests of Inhibition of Serotonin Re-Uptake (5HT-Uptake Inhibition)
To be able to carry out these studies in vitro, synaptosomes were freshly isolated from rat brain areas. What is known as a “P2” fraction was used in each case. This was prepared in accordance with Gray and Whittaker's directions (E. G. Gray and V. P. Whittaker (1962) J. Anat. 76, 79–88). These vesicular particles were isolated from the medulla+pons region of male rats' brains for 5HT uptake. A detailed description of the method may be found in the literature (M. Ch. Frink, H.-H. Hennies, W. Englberger, M. Haurand and B. Wilffert (1996) Arzneim. -Forsch./Drug Res. 46 (III), 11,1029–1036). The 5HT-uptake inhibition of the following compounds was tested by way of example: […]
For `COc1ccc(CC(=O)N2CCCC2c2nnc(-c3ccncc3)o2)cc1OC` (centres unmarked) [Example 13, 2-(3,4-dimethoxy-phenyl)-1-[2-(5-pyridin-4-yl-[1,3,4]oxadiazol-2-yl)-pyrrolidin-1-yl]-ethanone], the “5HT uptake, % inhibition” value came out at 67%.
Same read-out and setting: then `CC1(C)C2CCC1(CS(=O)(=O)N1CCCC1c1nnc(-c3ccncc3)o1)C(=O)C2` (centres unmarked) [Example 7, 7,7-dimethyl-1-[2-(5-pyridin-4-yl-[1,3,4]oxadiazol-2-yl)-pyrrolidin-1-sulfonylmethyl]-bicyclo[2.2.1]heptan-2-one], with 64%; and `Cc1cc(C)c(CS(=O)(=O)N2CCCC2c2nnc(-c3ccccc3F)o2)c(C)c1` (centres unmarked) [Example 61, 2-(2-fluoro-phenyl)-5-[1-(2,4,6-trimethyl-benzylsulfonyl)-pyrrolidin-2-yl]-[1,3,4]oxadiazole], with 50%; and `O=S(=O)(Cc1ccc(OC(F)(F)F)cc1)N1CCCC1c1nnc(-c2cccnc2)o1` (centres unmarked) [Example 134, 3-{5-[1-(4-trifluoromethoxy-benzylsulfonyl)-pyrrolidin-2-yl]-[1,3,4]oxadiazol-2-yl}-pyridine], with 55%.
Still for that read-out and setting: the value for `Cc1ccc(CS(=O)(=O)NC(Cc2ccccc2)C(=O)N2CCCC2c2nnc(-c3ccncc3)o2)cc1` (centres unmarked) [Example 21, N-{1-benzyl-2-oxo-2-[2-(5-pyridin-4-yl-[1,3,4]oxadiazol-2-yl)-pyrrolidin-1-yl]-ethyl}-4-methyl-benzylsulfonamide] was 53%; that for `O=S(=O)(c1cc(Cl)c(Cl)s1)N1CCCC1c1nnc(-c2ccncc2)o1` (centres unmarked) [Example 22, 4-{5-[1-(4,5-dichloro-thiophene-2-sulfonyl)-pyrrolidin-2-yl]-[1,3,4]oxadiazol-2-yl}-pyridine] was 60%; that for `O=C(c1cc(C(F)(F)F)ccc1C(F)(F)F)N1CCCC1c1nnc(-c2ccc(Cl)cc2)o1` (centres unmarked) [Example 164, (2,5-bis-trifluoromethyl-phenyl)-{2-[5-(4-chloro-phenyl)-[1,3,4]oxadiazol-2-yl]-pyrrolidin-1-yl}-methanone] was 80%.
Turning to `O=C(N1CCc2ccc(S(=O)(=O)N3CCCC3c3nnc(-c4ccncc4)o3)cc2C1)C(F)(F)F` (centres unmarked) [Example 182, 2,2,2-trifluoro-1-{7-[2-(5-pyridin-4-yl-[1,3,4]oxadiazol-2-yl)-pyrrolidin-1-sulfonyl]-3,4-dihydro-1H-isoquinolin-2-yl}-ethanone], the “5HT uptake, % inhibition” value came out at 52%.
Still for that read-out and setting: then `O=C(COc1ccc(Cl)cc1)N1CCCC1c1nnc(-c2ccncc2)o1` (centres unmarked) [Example 67, 2-(4-chloro-phenoxy)-1-[2-(5-pyridin-4-yl-[1,3,4]oxadiazol-2-yl)-pyrrolidin-1-yl]-ethanone], with 50%.
Same read-out and setting: then `Cc1nn(-c2ccccc2)nc1C(=O)N1CCCC1c1nnc(-c2ccncc2)o1` (centres unmarked) [Example 85, (5-methyl-2-phenyl-[1,2.3]triazol-4-yl)-[2-(5-pyridin-4-yl-[1,3,4]oxadiazol-2-yl)-pyrrolidin-1-yl]-methanone], with 61%.
On to `O=C(c1ccc(SC(F)(F)F)cc1)N1CCCC1c1nnc(-c2ccccc2)o1` (centres unmarked) [Example 181, [2-(5-phenyl-[1,3,4]oxadiazol-2-yl)-pyrrolidin-1-yl]-(4-trifluoromethylsulfanyl-phenyl)-methanone], for which the “5HT uptake, % inhibition” value was determined as 62%.
On the same count and under the same terms, the value for `O=C(c1ccc(Cl)cc1)N1CCCC1c1nnc(-c2ccc(-c3ccccc3)cc2)o1` (centres unmarked) [Example 14, [2-(5-biphenyl-4-yl-[1,3,4]oxadiazol-2-yl)-pyrrolidin-1-yl]-(4-chloro-phenyl)-methanone] was 69%; that for `COc1cccc(-c2nnc(C3CCCN3C(=O)c3cccc(F)c3F)o2)c1` (centres unmarked) [Example 173, (2,3-difluoro-phenyl)-{2-[5-(3-methoxy-phenyl)-[1,3,4]oxadiazol-2-yl]-pyrrolidin-1-yl}-methanone] was 62%.
Regarding `COc1cccc(-c2nnc(C3CCCN3C(=O)c3ccc(Br)cc3)o2)c1` (centres unmarked) [Example 92, (4-bromo-phenyl)-{2-[5-(3-methoxy-phenyl)-[1,3,4]oxadiazol-2-yl]-pyrrolidin-1-yl}-methanone], the “5HT uptake, % inhibition” value was determined as 58%.
On the same count and under the same terms, then `CN(C)c1cccc(C(=O)N2CCCC2c2nnc(-c3cccnc3)o2)c1` (centres unmarked) [Example 12, (3-dimethyamino-phenyl)-[2-(5-pyridin-3-yl-[1,3,4]oxadiazol-2-yl)-pyrrolidin-1-yl]-methanone], with 54%.
Still for that read-out and setting: the value for `O=C(c1cc(C(F)(F)F)ccc1C(F)(F)F)N1CCCC1c1nnc(-c2cccs2)o1` (centres unmarked) [Example 165, (2,5-bis-trifluoromethyl-phenyl)-[2-(5-thiophen-2-yl-[1,3,4]oxadiazol-2-yl)-pyrrolidin-1-yl]-methanone] was 76%; that for `CCOC(=O)CCC(=O)N1CCCC1c1nnc(-c2ccncc2)o1` (centres unmarked) [Example 4, 4-oxo-4-[2-(5-pyridin-4-yl-[1,3,4]oxadiazol-2-yl)-pyrrolidin-1-yl]-butyric acid ethyl ester] was 72%.
Still for that read-out and setting: then `O=C(c1cccnc1Cl)N1CCCC1c1nnc(-c2ccncc2)o1` (centres unmarked) [Example 6, (2-chloro-pyridin-3-yl)-[2-(5-pyridin-4-yl-[1,3,4]oxadiazol-2-yl)pyrrolidin-1-yl]-methanone], with 84%; and `O=C(C=Cc1ccccc1)N1CCCC1c1nnc(-c2ccccc2)o1` (centres unmarked) [Example 84, 3-phenyl-1-[2-(5-phenyl-[1,3,4]oxadiazol-2-yl)-pyrrolidin-1-yl]-propenone], with 61%.
Regarding `CCCc1c(C(=O)N2CCCC2c2nnc(-c3cccnc3)o2)cnn1-c1ccccc1` (centres unmarked) [Example 166, (1-phenyl-5-propyl-1H-pyrazol-4-yl)-[2-(5-pyridin-3-yl-[1,3,4]oxadiazol-2-yl)-pyrrolidin-1-yl]-methanone], the “5HT uptake, % inhibition” value worked out at 78%.
Consider `O=C(c1c(F)cccc1F)N1CCCC1c1nnc(-c2ccncc2)o1` (centres unmarked) [Example 101, (2,6-difluoro-phenyl)-[2-(5-pyridin-4-yl-[1,3,4]oxadiazol-2-yl)-pyrrolidin-1-yl]-methanone], for which the “5HT uptake, % inhibition” value was 54%.
The same measure, in the same setting: the value for `Cc1nc(C(F)(F)F)ccc1C(=O)N1CCCC1c1nnc(-c2ccccc2)o1` (centres unmarked) [Example 174, (2-methyl-6-trifluoromethyl-pyridin-3-yl)-[2-(5-phenyl-[1,3,4]oxadiazol-2-yl)-pyrrolidin-1-yl]-methanone] was 61%.
Turning to `COc1ccc(C(=O)N2CCCC2c2nnc(-c3ccncc3)o2)c(OC)c1` (centres unmarked) [Example 5, (2,4-dimethoxy-phenyl)-[2-(5-pyridin-4-yl-[1,3,4]oxadiazol-2-yl)-pyrrolidin-1-yl]methanone], the “5HT uptake, % inhibition” value turned out to be 81%.
Still for that read-out and setting: then `CCOc1ccc(C(=O)N2CCCC2c2nnc(-c3ccccc3)o2)cc1` (centres unmarked) [Example 109, (4-ethoxy-phenyl)-[2-(5-phenyl-[1,3,4]oxadiazol-2-yl)-pyrrolidin-1-yl]-methanone], with 54%.
On the same count and under the same terms, the value for `O=S(=O)(Cc1ccc(F)cc1F)N1CCCC1c1nnc(-c2cccnc2)o1` (centres unmarked) [Example 86, 3-{5-[1-(2,4-difluoro-benzylsulfonyl)-pyrrolidin-2-yl]-[1,3,4]oxadiazol-2-yl}-pyridine] was 73%; that for `COc1ccc(OC)c(CS(=O)(=O)N2CCCC2c2nnc(-c3cccnc3)o2)c1` (centres unmarked) [Example 30, 3-{5-[1-(2,5-dimethoxyl-benzylsulfonyl)-pyrrolidin-2-yl]-[1,3,4]oxadiazol-2-yl}-pyridine] was 60%.
For `COc1cccc(-c2nnc(C3CCCN3C(=O)c3ccnc(Cl)c3)o2)c1` (centres unmarked) [Example 94, (2-chloro-pyridin-4-yl)-{2-[5-(3-methoxy-phenyl)-[1,3,4]oxadiazol-2-yl]-pyrrolidin-1-yl}-methanone], the “5HT uptake, % inhibition” value turned out to be 50%.
